{
  "source": "paper PMC7053825",
  "about": "(European journal of medicinal chemistry, 2020)",
  "key": {"[1]": {"molecular_target": "HIV-1NL4-3 capsid protein (CA hexamer)", "assay": "SPR binding to CA hexamer", "settings": "hexamer versus monomer"}, "HIV-1 NL4-3 virus": {"test_system": "HIV-1 NL4-3 virus", "assay": "In vitro anti-HIV assay in TZM-bl cells", "format": "cell-based"}, "HIV-1 CA": {"molecular_target": "HIV-1 CA (Human immunodeficiency virus type 1 group M subtype B, UniProt P12493)", "assay": "In vitro capsid assembly assay", "format": "biochemical", "settings": "capsid 30 μM, compound 50 μM, 3M NaCl, compared to DMSO control"}, "in vitro": {"assay": "in vitro", "settings": "human, microsomes"}, "[2]": {"test_system": "NL4-3 Env pseudo-typed HIV-I virus", "assay": "ELISA-based quantification of capsid", "format": "cell-based, HIV-1", "settings": "10 μM compound, compared to the DMSO control"}, "[3]": {"assay": "Human plasma stability assay", "format": "in vitro ADME"}},
  "data": [
    {"smiles": "COc1ccc(N(C)C(=O)[C@H](Cc2ccccc2)NC(=O)Cn2cc(-c3ccccc3NC(=O)c3cccc(F)c3)nn2)cc1", "note": "[6a-10, (S)-3-fluoro-N-(2-(1-(2-((1-((4-methoxyphenyl)(methyl)amino)-1-oxo-3-phenylpropan-2-yl)amino)-2-oxoethyl)-1H-1,2,3-triazol-4-yl)phenyl)benzamide]", "values": [
      {"measurement": "difference in KD values for hexameric and monomeric CA", "setting": "[1]", "result": "no significant differences"}
    ]},
    {"smiles": "COc1ccc(C(=O)Nc2ccccc2-c2cn(CC(=O)N[C@@H](Cc3ccccc3)C(=O)N(C)c3ccc(OC)cc3)nn2)cc1", "note": "[6a-6, (S)-4-methoxy-N-(2-(1-(2-((1-((4-methoxyphenyl)(methyl)amino)-1-oxo-3-phenylpropan-2-yl)amino)-2-oxoethyl)-1H-1,2,3-triazol-4-yl)phenyl)benzamide]", "values": [
      {"measurement": "EC50", "setting": "HIV-1 NL4-3 virus; Human immunodeficiency virus 1, NL43, TZM-bl", "result": "> 16.2", "unit": "µM"}
    ]},
    {"smiles": "Cc1[nH]c2ccccc2c1CC(=O)N[C@@H](Cc1ccccc1)C(=O)N(C)c1ccccc1", "note": "[PF-74]", "values": [
      {"measurement": "effect on in vitro assembly of HIV-1 CA", "setting": "HIV-1 CA", "result": "accelerated the assembly of HIV-1 CA"},
      {"measurement": "CLint scaled at 1 h", "setting": "in vitro", "result": 2160, "unit": "mL/min/kg"}
    ]},
    {"smiles": "COc1ccc(N(C)C(=O)[C@H](Cc2ccccc2)NC(=O)Cn2cc(-c3cccc(NC(=O)c4cccc(F)c4)c3)nn2)cc1", "note": "[6b-10, (S)-3-fluoro-N-(3-(1-(2-((1-((4-methoxyphenyl)(methyl)amino)-1-oxo-3-phenylpropan-2-yl)amino)-2-oxoethyl)-1H-1,2,3-triazol-4-yl)phenyl)benzamide]", "values": [
      {"measurement": "fold better active", "setting": "HIV-1 NL4-3 virus; EC50 with respect to 6b-2", "result": 1.3, "unit": "fold"}
    ]},
    {"smiles": "C[C@]12CC[C@H]3[C@@H](CCC4=CC(=O)CC[C@@]43C)[C@@H]1CC[C@@H]2O", "note": "[Testosterone]", "values": [
      {"measurement": "Remaining (T=60min)", "setting": "HLM 0.5 mg protein/mL", "result": 3.6, "unit": "%"},
      {"measurement": "Remaining (NCF=60min)", "setting": "HLM, no cofactor (no NADPH regenerating system)", "result": 74.4, "unit": "%"},
      {"measurement": "CLint scaled at 1 h", "setting": "in vitro", "result": 169, "unit": "mL/min/kg"}
    ]},
    {"smiles": "COc1ccc(N(C)C(=O)[C@H](Cc2ccccc2)NC(=O)Cn2cc(-c3ccccc3NC(=O)c3cccc(OC)c3)nn2)cc1", "note": "[6a-5, (S)-3-methoxy-N-(2-(1-(2-((1-((4-methoxyphenyl)(methyl)amino)-1-oxo-3-phenylpropan-2-yl)amino)-2-oxoethyl)-1H-1,2,3-triazol-4-yl)phenyl)benzamide]", "values": [
      {"measurement": "fold decrease in antiviral activity", "setting": "HIV-1 NL4-3 virus; EC50 relative to 6a-2", "result": 3.4, "unit": "fold"}
    ]},
    {"smiles": "COc1ccc(N(C)C(=O)[C@H](Cc2ccccc2)NC(=O)Cn2cc(-c3cccc(NC(=O)c4ccccc4)c3)nn2)cc1", "note": "[6b-2, (S)-N-(3-(1-(2-((1-((4-methoxyphenyl)(methyl)amino)-1-oxo-3-phenylpropan-2-yl)amino)-2-oxoethyl)-1H-1,2,3-triazol-4-yl)phenyl)benzamide]", "values": [
      {"measurement": "fold decrease in antiviral activity", "setting": "HIV-1 NL4-3 virus; EC50 relative to 5b", "result": 3.9, "unit": "fold"}
    ]},
    {"smiles": "COc1ccc(N(C)C(=O)[C@H](Cc2ccccc2)NC(=O)Cn2cc(-c3ccccc3NC(=O)c3ccccc3F)nn2)cc1", "note": "[6a-9, (S)-2-fluoro-N-(2-(1-(2-((1-((4-methoxyphenyl)(methyl)amino)-1-oxo-3-phenylpropan-2-yl)amino)-2-oxoethyl)-1H-1,2,3-triazol-4-yl)phenyl)benzamide]", "values": [
      {"measurement": "difference in KD values for hexameric and monomeric CA", "setting": "[1]", "result": "no significant differences"},
      {"measurement": "reduction of p24 of the produced virus", "setting": "[2]", "result": "about 15%"},
      {"measurement": "remaining at 0 h", "setting": "[3]", "result": 100, "unit": "%"},
      {"measurement": "CLint scaled at 1 h", "setting": "in vitro", "result": 1400, "unit": "mL/min/kg"}
    ]},
    {"smiles": "COc1ccc(N(C)C(=O)[C@H](Cc2ccccc2)NC(=O)Cn2cc(-c3cccc(NC(C)=O)c3)nn2)cc1", "note": "[6b-1, (S)-2-(2-(4-(3-acetamidophenyl)-1H-1,2,3-triazol-1-yl)acetamido)-N-(4-methoxyphenyl)-N-methyl-3-phenylpropanamide]", "values": [
      {"measurement": "fold decrease in antiviral activity", "setting": "HIV-1 NL4-3 virus; EC50 relative to 5b", "result": 4.5, "unit": "fold"}
    ]},
    {"smiles": "CC(C)[N+](C)(CCOC(=O)C1c2ccccc2Oc2ccccc21)C(C)C", "note": "[Propantheline bromide, reference compound]", "values": [
      {"measurement": "remaining at 0 h", "setting": "[3]", "result": 100, "unit": "%"}
    ]},
    {"smiles": "COc1ccc(N(C)C(=O)[C@H](Cc2ccccc2)NC(=O)Cn2cc(-c3ccccc3NC(=O)c3ccccc3OC)nn2)cc1", "note": "[6a-4, (S)-2-methoxy-N-(2-(1-(2-((1-((4-methoxyphenyl)(methyl)amino)-1-oxo-3-phenylpropan-2-yl)amino)-2-oxoethyl)-1H-1,2,3-triazol-4-yl)phenyl)benzamide]", "values": [
      {"measurement": "fold decrease in antiviral activity", "setting": "HIV-1 NL4-3 virus; EC50 relative to 6a-2", "result": 2.2, "unit": "fold"}
    ]}
  ]
}
